Assay results as given in US11845752B2, “Substituted imidazo[1,5-a]pyrazines for the treatment of hepatitis B” (ALIGOS THERAPEUTICS, INC., priority 2020, dated 2023).

Tested on: HBV
Assay: HBV-DNA antiviral assay using HepG2.117 cells (intracellular HBV DNA by qPCR)
Type: cell-based, HBV genotype D
Settings: Hepatitis B virus, HepG2.117, 72 h, HBV DNA inhibition, 3 days incubation, read-out: EC50
Protocol: The following assay procedure describes the HBV antiviral assay, using HepG2.117 cells, which carry a stably integrated genotype D HBV genome under the control of a Tet-off promoter, and intracellular HBV DNA quantification as endpoint. Cell viability is assessed in parallel by measuring the intracellular ATP content using ATPlite (Perkin Elmer).
On day 0, HepG2.117 cells (which are maintained in routine cell culture with doxycycline present in the medium at a final concentration of 1 μg/mL) were seeded in 96-well plates (white with clear bottom) at a density of 2.0×10^4 cells/well (0.1 mL/well) in medium without doxycycline to induce pgRNA transcription and subsequent formation of HBV particles. The cells were incubated at 37° C. and 5% CO2.
On day 1, medium was removed from each well, the test articles were diluted in culture medium without doxcycyline and 100 μL was added to cell culture wells (9 concentrations, 4-fold dilution). For each plate, 6 untreated (merely DMSO) wells were included. The final concentration of DMSO in the culture medium was 2%. Each plate was prepared in duplicate (one for HBV DNA extraction, one for ATPlite measurement). The cells were incubated at 37° C. and 5% CO2 for 3 days.
On day 4, cell viability was assessed using ATPlite and cell lysates were prepared for HBV DNA extraction and subsequent quantification by qPCR.
Medium was removed from each well and 100 μL of 0.33% NP-40 in H2O was added to each well. Plates were sealed, incubated at 4° C. for 5 mins, vortexed extensively and centrifuged briefly. Next, 35 μL of lysate was added to 65 μL QuickExtract DNA Extraction Solution (Epicentre) in a PCR plate for each well. PCR plate was incubated at 65° C. for 6 mins, 98° C. for 2 mins and finally cooled to 4° C. HBV DNA was then quantified by qPCR with HBV-specific primers and probes as specified in Table 1 using the Bio-Rad SSOAdvanced Universal Probes Supermix on a CFX96 machine (Bio-Rad). The PCR cycle program consisted of 95° C. for 3 mins, followed by 40 cycles at 95° C. for 10 sec and 60° C. for 30 sec.
A DNA standard was prepared by dilution of an IDT gBlock corresponding to the amplicon with concentrations ranging from 10^2 to 10^8 copies/input (i.e. per 4 μL) and used to generate a standard curve by plotting Cq values vs. HBV DNA standard concentration. The quantity of HBV DNA in each sample was determined by interpolating from the standard curve.
Cell viability was calculated as follows: % Cell viability=(luminescence value of test sample)/(average luminescence value of 2% DMSO control)×100%. HBV DNA inhibition was calculated as follows: 100−(HBV DNA copy number of test sample)/(average HBV DNA copy number of 2% DMSO control)×100%. No normalization to entecavir was required due to the excellent dynamic window of this assay. The CC50, EC50 and EC90 values were determined by dose-response curves fitted using non-linear regression.

Compound: C[C@@H]1Cn2c(c(C(=O)NCc3ccccc3-c3ncccn3)n(-c3ccc(OC[C@H](O)C(F)(F)F)cc3)c2=O)CN1C(=O)c1ccc(Br)c(C(F)(F)F)c1 (mixture of isomers) [Compound 75a, (6RS)-7-[4-bromo-3-(trifluoromethyl)benzoyl]-6-methyl-3-oxo-N-[(2-pyrimidin-2-ylphenyl)methyl]-2-[4-[(2S)-3,3,3-trifluoro-2-hydroxy-propoxy]phenyl]-6,8-dihydro-5H-imidazo[1,5-a]pyrazine-1-carboxamide]
- EC50: < 0.05 µM

Compound: C[C@H]1Cn2c(c(C(=O)NCc3ccccc3-c3ncccn3)n(-c3ccc(OC[C@H](O)C(F)(F)F)cc3)c2=O)CN1C(=O)c1ccc(Br)c(C(F)(F)F)c1 (mixture of isomers) [Compound 75b, (6SR)-7-[4-bromo-3-(trifluoromethyl)benzoyl]-6-methyl-3-oxo-N-[(2-pyrimidin-2-ylphenyl)methyl]-2-[4-[(2S)-3,3,3-trifluoro-2-hydroxy-propoxy]phenyl]-6,8-dihydro-5H-imidazo[1,5-a]pyrazine-1-carboxamide]
- EC50: 0.05 to 0.5 µM

Compound: C[C@@H]1Cn2c(c(C(=O)NCc3ccccc3-c3ccncn3)n(-c3ccc(N4CCN(C)[C@H](C(F)(F)F)C4)cc3)c2=O)CN1C(=O)c1ccc(Br)c(C(F)(F)F)c1 (mixture of isomers) [Compound 87a, (6RS)-7-[4-bromo-3-(trifluoromethyl)benzoyl]-6-methyl-2-[4-[(3S)-4-methyl-3-(trifluoromethyl)piperazin-1-yl]phenyl]-3-oxo-N-[(2-pyrimidin-4-ylphenyl)methyl]-6,8-dihydro-5H-imidazo[1,5-a]pyrazine-1-carboxamide]
- EC50: 0.05 to 0.5 µM

Compound: C[C@H]1Cn2c(c(C(=O)NCc3ccccc3-c3ccncn3)n(-c3ccc(N4CCN(C)[C@H](C(F)(F)F)C4)cc3)c2=O)CN1C(=O)c1ccc(Br)c(C(F)(F)F)c1 (mixture of isomers) [Compound 87b, (6SR)-7-[4-bromo-3-(trifluoromethyl)benzoyl]-6-methyl-2-[4-[(3S)-4-methyl-3-(trifluoromethyl)piperazin-1-yl]phenyl]-3-oxo-N-[(2-pyrimidin-4-ylphenyl)methyl]-6,8-dihydro-5H-imidazo[1,5-a]pyrazine-1-carboxamide]
- EC50: < 0.05 µM

Compound: C[C@H](O)Cn1ncc2cc(-n3c(C(=O)NCc4ccccc4-c4ncccn4)c4n(c3=O)C[C@@H](C)N(C(=O)c3ccc(Br)c(C(F)(F)F)c3)C4)ccc21 (mixture of isomers) [Compound 94a, (6RS)-7-[4-bromo-3-(trifluoromethyl)benzoyl]-2-[1-[(2S)-2-hydroxypropyl]indazol-5-yl]-6-methyl-3-oxo-N-[(2-pyrimidin-2-ylphenyl)methyl]-6,8-dihydro-5H-imidazo[1,5-a]pyrazine-1-carboxamide]
- EC50: 0.05 to 0.5 µM

Compound: C[C@H](O)Cn1ncc2cc(-n3c(C(=O)NCc4ccccc4-c4ncccn4)c4n(c3=O)C[C@H](C)N(C(=O)c3ccc(Br)c(C(F)(F)F)c3)C4)ccc21 (mixture of isomers) [Compound 94b, (6SR)-7-[4-bromo-3-(trifluoromethyl)benzoyl]-2-[1-[(2S)-2-hydroxypropyl]indazol-5-yl]-6-methyl-3-oxo-N-[(2-pyrimidin-2-ylphenyl)methyl]-6,8-dihydro-5H-imidazo[1,5-a]pyrazine-1-carboxamide]
- EC50: 0.05 to 0.5 µM

Compound: C[C@H]1Cn2c(c(C(=O)NCc3ccccc3-c3ncccn3)n(-c3ccc4c(cnn4C[C@@H](O)C(F)(F)F)c3)c2=O)CN1C(=O)c1ccc(Br)c(C(F)(F)F)c1 (mixture of isomers) [Compound 101b, (6SR)-7-[4-bromo-3-(trifluoromethyl)benzoyl]-6-methyl-3-oxo-N-[(2-pyrimidin-2-ylphenyl)methyl]-2-[1-[(2R)-3,3,3-trifluoro-2-hydroxy-propyl]indazol-5-yl]-6,8-dihydro-5H-imidazo[1,5-a]pyrazine-1-carboxamide]
- EC50: < 0.05 µM

Compound: C[C@@H]1Cn2c(c(C(=O)NCc3ccccc3-c3ncccn3)n(-c3ccc4c(cnn4C[C@H](O)C(F)(F)F)c3)c2=O)CN1C(=O)c1ccc(Br)c(C(F)(F)F)c1 (mixture of isomers) [Compound 102a, (6RS)-7-[4-bromo-3-(trifluoromethyl)benzoyl]-6-methyl-3-oxo-N-[(2-pyrimidin-2-ylphenyl)methyl]-2-[1-[(2S)-3,3,3-trifluoro-2-hydroxy-propyl]indazol-5-yl]-6,8-dihydro-5H-imidazo[1,5-a]pyrazine-1-carboxamide]
- EC50: 0.05 to 0.5 µM

Compound: C[C@H]1Cn2c(c(C(=O)NCc3ccccc3-c3ncccn3)n(-c3ccc4c(cnn4C[C@H](O)C(F)(F)F)c3)c2=O)CN1C(=O)c1ccc(Br)c(C(F)(F)F)c1 (mixture of isomers) [Compound 102b, (6SR)-7-[4-bromo-3-(trifluoromethyl)benzoyl]-6-methyl-3-oxo-N-[(2-pyrimidin-2-ylphenyl)methyl]-2-[1-[(2S)-3,3,3-trifluoro-2-hydroxy-propyl]indazol-5-yl]-6,8-dihydro-5H-imidazo[1,5-a]pyrazine-1-carboxamide]
- EC50: < 0.05 µM

Compound: C[C@H]1Cn2c(c(C(=O)NCc3ccccc3-c3ncccn3)n(-c3ccc4nn(C[C@@H](O)C(F)(F)F)cc4c3)c2=O)CN1C(=O)c1ccc(Br)c(C(F)(F)F)c1 (mixture of isomers) [Compound 105b, (6SR)-7-[4-bromo-3-(trifluoromethyl)benzoyl]-6-methyl-3-oxo-N-[(2-pyrimidin-2-ylphenyl)methyl]-2-[2-[(2R)-3,3,3-trifluoro-2-hydroxy-propyl]indazol-5-yl]-6,8-dihydro-5H-imidazo[1,5-a]pyrazine-1-carboxamide]
- EC50: 0.05 to 0.5 µM

Compound: C[C@@H]1Cn2c(c(C(=O)NCc3ccccc3-c3ncccn3)n(-c3ccc4nn(C[C@H](O)C(F)(F)F)cc4c3)c2=O)CN1C(=O)c1ccc(Br)c(C(F)(F)F)c1 (mixture of isomers) [Compound 107a, (6RS)-7-[4-bromo-3-(trifluoromethyl)benzoyl]-6-methyl-3-oxo-N-[(2-pyrimidin-2-ylphenyl)methyl]-2-[2-[(2S)-3,3,3-trifluoro-2-hydroxy-propyl]indazol-5-yl]-6,8-dihydro-5H-imidazo[1,5-a]pyrazine-1-carboxamide]
- EC50: 0.05 to 0.5 µM

Compound: C[C@H]1Cn2c(c(C(=O)NCc3ccccc3-c3ncccn3)n(-c3ccc4nn(C[C@H](O)C(F)(F)F)cc4c3)c2=O)CN1C(=O)c1ccc(Br)c(C(F)(F)F)c1 (mixture of isomers) [Compound 107b, (6SR)-7-[4-bromo-3-(trifluoromethyl)benzoyl]-6-methyl-3-oxo-N-[(2-pyrimidin-2-ylphenyl)methyl]-2-[2-[(2S)-3,3,3-trifluoro-2-hydroxy-propyl]indazol-5-yl]-6,8-dihydro-5H-imidazo[1,5-a]pyrazine-1-carboxamide]
- EC50: 0.05 to 0.5 µM

Compound: C[C@@H]1Cn2c(c(C(=O)NCc3ccccc3-c3ccn(CC(F)(F)F)n3)n(-c3ccc4c(cnn4C[C@@H](C)O)c3)c2=O)CN1C(=O)c1ccc(Br)c(C(F)(F)F)c1 (mixture of isomers) [Compound 111a, (6RS)-7-[4-bromo-3-(trifluoromethyl)benzoyl]-2-[1-[(2R)-2-hydroxypropyl]indazol-5-yl]-6-methyl-3-oxo-N-[[2-[1-(2,2,2-trifluoroethyl)pyrazol-3-yl]phenyl]methyl]-6,8-dihydro-5H-imidazo[1,5-a]pyrazine-1-carboxamide]
- EC50: 0.05 to 0.5 µM

Compound: C[C@@H](O)Cn1ncc2cc(-n3c(C(=O)NCc4ccccc4-c4ccn(CC(F)(F)F)n4)c4n(c3=O)C[C@H](C)N(C(=O)c3ccc(Br)c(C(F)(F)F)c3)C4)ccc21 (mixture of isomers) [Compound 111b, (6SR)-7-[4-bromo-3-(trifluoromethyl)benzoyl]-2-[1-[(2R)-2-hydroxypropyl]indazol-5-yl]-6-methyl-3-oxo-N-[[2-[1-(2,2,2-trifluoroethyl)pyrazol-3-yl]phenyl]methyl]-6,8-dihydro-5H-imidazo[1,5-a]pyrazine-1-carboxamide]
- EC50: 0.05 to 0.5 µM

Compound: CNc1ccnc(-c2ccccc2CNC(=O)c2c3n(c(=O)n2-c2ccc(OC4CC4)cc2)C[C@H](C)N(C(=O)c2ccc(Br)c(Cl)c2)C3)n1 (racemic) [Compound 26b]
- EC50: < 0.05 µM
